Source: patent US9096632B2, “Modulator of activity of adenylate cyclase” (Public University Corporation Yokohama City University, priority 2010, dated 2015)

Key:
[1] = target: T1, adenylyl cyclase activity in the heart; assay: Membrane adenylyl cyclase assay, WT heart membrane, forskolin-stimulated; type: biochemical, mouse; settings: WT; estimated from 10, 50 and 100 μM; 50 μM forskolin
T1 construct: IC50 on adenylyl cyclase activity in the heart; other: WT; estimated from 10, 50 and 100 μM
Description: FIG. 3 Inhibitory effects of individual vidarabine derivatives on adenylyl cyclase activity in the striatum, heart and lung. With adenylyl cyclase activity in the presence of […] but in the absence of inhibitors being taken as 100, the reductions in adenylyl cyclase activity upon treatment with various inhibitors at the concentrations indicated on the horizontal axis are shown (n=4, means±S.E.).
<Membrane Adenylyl Cyclase Assay>
Striatal, cardiac and pulmonary tissues were removed from WT (C57BL) (Charles River Laboratories Japan, Inc.) and AC5KO (Circ. Res. 93: 364-371, 2003), both of which were 12-15 weeks of age after birth, and individual membrane protein fractions were prepared therefrom. The resultant membrane preparations were incubated with a reaction mixture (20 mM HEPES, pH 8, 5 mM MgCl2, 0.5 mM EDTA, pH 8, 0.1 mM ATP, 1 mM phospho creatine, 8 U/mL creatine phosphor kinase, 200 μM IBMX) at 30° C. in the presence of forskolin (an activator of adenylyl cyclase) (50 μM, Sigma Cat. No. F6886) and various compounds, to thereby allow production of cAMP. In this assay, striatum- or lung-derived membrane preparations were used in an amount of 1 μg, and heart-derived membrane preparation was used in an amount of 2 μg. 15 minutes (striatum and lung) or 30 minutes (heart) after its start, the reaction was terminated by adding trichloroacetate (TCA) solution to give a final concentration of 5%. Then, the protein was precipitated by centrifugation (13,500×g, 10 min).
In both membrane adenylyl cyclase assay and cAMP accumulation assay, the amount of cAMP contained in TCA solution was determined by radioimmunoassay using […].

[2] = tested on: rat embryo cultured cardiac myocytes; assay: TUNEL staining of cardiac myocytes (isoproterenol-induced apoptosis); type: cell-based; settings: 10^−5 M compound with isoproterenol 10^−5 M, 48 hours
Description: FIG. 10 TUNEL staining of cardiac myocytes. To a culture both of neonatal rat cardiac myocytes, isoproterenol (10^−5 M) either alone or in combination with vidarabine, V2E, V3E or VSE was added for stimulation (48 hours). Then, apoptosis positive cells were evaluated by TUNEL staining.
<TUNEL Staining of Cardiac Myocytes>
A culture broth of rat embryo cultured cardiac myocytes (pregnant Wistar rats were purchased from Nippon SLC) was stimulated (48 hours) with isoproterenol (10^−5 M) either alone or in combination with vidarabine, V2E, V3E or V5E (10^−5 M). Then, apoptosis positive cells were evaluated by TUNEL staining.

[3] = Toxicity test (blood BUN, creatinine, GPT, GOT); type: in vivo, mouse; settings: 15 mg/kg/day for 7 days, osmotic mini-pump
Description: FIG. 11 Toxicity test. Vidarabine, V2E, V3E and V5E were administered individually with an osmotic mini-pump (15 mg/kg/day for 7 days). Then, blood samples were taken and subjected to BUN, creatinine, GPT and GOT measurements. The results were compared with the results from a control group.
Vidarabine, V2E, V3E and V5E were administered individually to WT (C57BL/6N; Nippon SLC) with an osmotic mini-pump (15 mg/kg/day for 7 days). Then, blood samples were taken and subjected to BUN, creatinine, OPT and GOT measurements. The results were compared with the results from control group.

[4] = tested on: strychnine-induced tonic extensive convulsion and death; settings: for time to death induced by strychnine convulsion: 150 mg/kg (0.525 mmol/kg) and 300 mg/kg (1.05 mmol/kg) i.p. 15 min before strychnine 1.5 mg/kg; for migration to the central nervous system: evaluated indirectly from strychnine antagonism
Description: FIG. 13 Effects on the central nervous system. […] Strychnine nitrate dissolved in physiological saline was administered in the cervicodorsal hypoderm of mice (C57BL/6N; Nippon SLC; male; 10-12 week old) at a dose of 1.5 mg/kg. Subsequently, the time to death through tonic extensive convulsion was measured so that the effect on migration to the central nervous system was evaluated indirectly. Vidarabine, V2E, V3E and V5E were dissolved or suspended in physiological saline and administered intraperitoneally 15 minutes before strychnine administration (n=4-10, means±SE) (FIG. 13). Death was judged to have occurred when the thoracic respiratory movement ceased.
The migration of vidarabine, V2E, V3E and V5E to the central nervous system was evaluated by antagonism against the tonic extensive convulsion and death initiated in mice by strychnine administration. Strychnine nitrate dissolved in physiological saline was administered in the cervicodorsal hypoderm of mice (C57BL/6N; Nippon SLC; male; 10-12 week old) at a dose of 1.5 mg/kg. Subsequently, the time to death through tonic extensive convulsion was measured. Vidarabine, V2E, V3E and V5E were dissolved or suspended in physiological saline and administered intraperitoneally 15 minutes before strychnine administration.

[5] = tested on: pacing-induced atrial fibrillation; assay: Antiarrhythmic action: pacing-induced transient atrial fibrillation; type: in vivo, mouse; settings: vidarabine 15 mg/kg/day, V2E, V3E, V5E 19.8 mg/kg/day, osmotic mini-pump; vs DMSO alone
Description: FIG. 14 Antiarrhythmic (atrial fibrillation inhibition) action. To healthy wild type mice (C57BL/6N), vidarabine (15 mg/kg/day), V2E, V3E or V5E (19.8 mg/kg/day) (all of which are dissolved in DMSO) or DMSO alone was administered with an osmotic mini-pump (Alzet 2001). Subsequently, voltage stimuli of 2.5 mA were applied to the mice for 60 seconds at intervals of 30 milliseconds with a transesophageal catheter (atrial tachypacing; Circ Res 97, 62-69, 2005) to induce transient atrial fibrillation. The duration of atrial fibration until the induced transient atrial fibrillation converted to a normal sinus rhythm was measured (n=4-8, means±SE).
After mice were inhalationally anesthetized with isoflurane, an electrode catheter (Millar: Model EPR800; size 1.1 F; length 4.5 cm) connected to an electrocardiogram amp for the purpose of recording intracardiac electrocardiogram was slowly inserted through the oral cavity into the esophagus, and fixed at a site where maximum P wave was recorded. The thus fixed electrode catheter was connected to an electrostimulator carefully enough to avoid any movement of its position. Thereafter, body surface electrogram was recorded by II lead. Subsequently, voltage stimuli of 2.5 mA were applied to mice for 60 seconds at intervals of 30 milliseconds to thereby induce transient atrial fibrillation. The time period during which the following phenomena can be confirmed from body surface electrogram was regarded as the duration of atrial P wave disappears from the baseline and the R-R intervals are not regular but produce arrhythmic pulse.
To healthy WT (C57BL/6N), each of vidarabine (15 mg/kg/day), V2E, V3E and V5E (19.8 mg/kg/day) (all of which were dissolved in DMSO) or DMSO alone was administered with an osmotic mini-pump (Alzet 2001). Subsequently, atrial fibrillation was induced under the above-described conditions, and the duration of atrial fibrillation until the induced atrial fibrillation converted to a normal sinus rhythm was measured (FIG. 14). This experiment was completed after confirming that the normal sinus rhythm was lasting for at least 5 minutes and that there was no recurrence of atrial fibrillation. For information, the maximum dose of vidarabine approved for use in the treatment of herpes in humans is 15 mg/kg/day for 10 days.

Structure (SMILES)	IC50 [1]	inhibitory effect on isoproterenol stimulation-induced apoptosis (TUNEL positive cells) [2]	BUN compared with control group [3]	GOT compared with control group [3]	OPT compared with control group [3]	creatinine compared with control group [3]	time to death induced by strychnine convulsion [4]	migration to the central nervous system [4]	time for pacing-induced atrial fibrillation to convert to a normal sinus rhythm [5]
CN(C)CC(=O)OC1C(CO)OC(n2cnc3c(N)ncnc32)C1O (stereo not shown) [V3E, 3-O—(N,N-Dimethylglycyl)Vidarabine]	19.9 µM	comparable to the effect of vidarabine	No significant increase	No significant increase	No significant increase	No significant increase	did not prolong	extremely low	significantly shortened
CN(C)CC(=O)OC1C(O)C(CO)OC1n1cnc2c(N)ncnc21 (stereo not shown) [V2E, 2-O—(N,N-Dimethylglycyl)Vidarabine]	17.8 µM	comparable to the effect of vidarabine	No significant increase	No significant increase	No significant increase	No significant increase	did not prolong	extremely low	significantly shortened
CN(C)CC(=O)OCC1OC(n2cnc3c(N)ncnc32)C(O)C1O (stereo not shown) [V5E, 5-O—(N,N-Dimethylglycyl)Vidarabine]	42.9 µM	comparable to the effect of vidarabine	No significant increase	No significant increase	No significant increase	No significant increase	did not prolong	extremely low	significantly shortened
Nc1ncnc2c1ncn2[C@@H]1O[C@H](CO)[C@@H](O)[C@@H]1O [vidarabine, reference compound]	7.7 µM		No significant increase	No significant increase	No significant increase	No significant increase	significantly prolonged		significantly shortened
